The values that follow come from patent publication US20220378923A1, “BET DEGRADER” (KYOWA KIRIN CO., LTD., priority 2019, published 2022).

The structures appear in SMILES notation.

By IC90 is commonly meant the concentration needed for an effect of 90%.

The first assay deals with SU-DHL-4 cells. The assay is described as follows: Inhibitory effect on cell viability in SU-DHL-4 cell line (Test Example 1). Conditions: Homo sapiens; SU-DHL-4 cells, 72 hours, Cell Counting Kit-8; concentration showing 90% inhibition of cell viability; read-out: SU-DHL-4 Cell Viability Inhibition Rate IC90. The assay is classed as cell-based, human. How it is done: SU-DHL-4 cells (Code No. ACC 495, Deutsche Sammlung von Mikroorganismen and Zellkulturen GmbH; DSMZ) were cultured at 37° C. using a carbon dioxide incubator (95% air, 5% CO2) in RPMI1640 medium (Code No. 11875-093, Thermo Fisher Scientific) in which inactivated fetal bovine serum (FBS: Code No. 10099-148, Thermo Fisher Scientific) in an amount to give a final concentration of 10 vol % and penicillin/streptomycin solution (PS: […] The cells were passaged twice a week at a volume of 20-40 mL so as to maintain a cell concentration of 1×10^6 cells/mL or less. […] After seeding, the cells were precultured at 37° C. in a carbon dioxide gas incubator for 18 to 25 hours. […] At this time, the final concentration of DMSO was adjusted to be 0.1 vol %. After adding the test compound, the cells were cultured at 37° C. in a carbon dioxide gas incubator for 72 hours. Next, 0.020 mL of Cell Counting Kit-8 (Code No. CK04, DOJINDO) solution diluted 2-fold or 4-fold with phosphate buffered saline (PBS) was added to each well. Color reaction was carried out in a carbon dioxide gas incubator at 37° C. for 2 to 3 hours, and the absorbance at a wavelength of 450 nm was measured using SpectraMax 340PC (Molecular Devices). […] Absorbance of a well containing test compound • B: Absorbance of a well without addition of cells • C: Absorbance of a well without addition of test compound
On the technique in general: Tetrazolium dyes change colour on reduction, which living cells bring about.
For `CCC(=O)N1c2ccccc2[C@H](Nc2ccc(NC(=O)CNCC(=O)Nc3ccc(N[C@@H]4C[C@H](C)N(C(=O)CC)c5ccccc54)nc3)cc2)C[C@@H]1C` (relative stereo) [Compound 17g, N-(4-(((2S,4R)-2-Methyl-1-propionyl-1,2,3,4-tetrahydroquinolin-4-yl)amino)phenyl)-2-((2-((6-(((2S*,4R*)-2-methyl-1-propionyl-1,2,3,4-tetrahydroquinolin-4-yl)amino)pyridin-3-yl)amino)-2-oxoethyl)amino)acetamide], the IC90 stood at 32.7 nM.

Still in this assay, the particulars now being: SU-DHL-4 cells, 72 hours, Cell Counting Kit-8; concentration showing 90% inhibition of cell viability; read-out: SU-DHL-4 Cell Viability Inhibition Rate IC90.
Turning to `CCC(=O)N1c2ccccc2[C@H](Nc2ccc(-c3cnc4n3CCN(C(=O)C3CCC(N[C@@H]5C[C@H](C)N(C(=O)CC)c6ccccc65)CC3)C4)cc2)C[C@@H]1C` (relative stereo) [Compound 8h, 1-((2S*,4R*)-2-methyl-4-(((1R,4R)-4-(3-(4-(((2S,4R)-2-methyl-1-propionyl-1,2,3,4-tetrahydroquinolin-4-yl)amino)phenyl)-5,6,7,8-tetrahydroimidazo[1,2-a]pyrazine-7-carbonyl)cyclohexyl)amino)-3,4-dihydroquinolin-1(2H)-yl)propan-1-one], the IC90 turned out to be 1.14 nM.
Regarding `CCC(=O)N1c2ccccc2[C@H](Nc2ccc(SCCNC(=O)C3CCC(N[C@@H]4C[C@H](C)N(C(=O)CC)c5ccccc54)CC3)cc2)C[C@@H]1C` (relative stereo) [Compound 8i, (1R,4R)-4-(((2S*,4R*)-2-Methyl-1-propionyl-1,2,3,4-tetrahydroquinolin-4-yl)amino)-N-(2-((4-(((2S,4R)-2-methyl-1-propionyl-1,2,3,4-tetrahydroquinolin-4-yl)amino)phenyl)thio)ethyl)cyclohexane-1-carboxamide], the 90% effect concentration (IC90) came out at 2.69 nM.
For `CCC(=O)N1c2ccccc2[C@H](Nc2ccc(-c3nc(CNC(=O)C4CCC(N[C@@H]5C[C@H](C)N(C(=O)CC)c6ccccc65)CC4)no3)cc2)C[C@@H]1C` (relative stereo) [Compound 8k, (1R,4R)-4-(((2S*,4R*)-2-Methyl-1-propionyl-1,2,3,4-tetrahydroquinolin-4-yl)amino)-N-((5-(4-(((2S,4R)-2-methyl-1-propionyl-1,2,3,4-tetrahydroquinolin-4-yl)amino)phenyl)-1,2,4-oxadiazol-3-yl)methyl)cyclohexane-1-carboxamide], the IC90 worked out at 0.26 nM.
Consider `CCC(=O)N1c2ccccc2[C@H](Nc2ccc(-n3cc(CNC(=O)C4CCC(N[C@@H]5C[C@H](C)N(C(=O)CC)c6ccccc65)CC4)nn3)cc2)C[C@@H]1C` (relative stereo) [Compound 8l, (1R,4R)-4-(((2S*,4R*)-2-Methyl-1-propionyl-1,2,3,4-tetrahydroquinolin-4-yl)amino)-N-((1-(4-(((2S,4R)-2-methyl-1-propionyl-1,2,3,4-tetrahydroquinolin-4-yl)amino)phenyl)-1H-1,2,3-triazol-4-yl)methyl)cyclohexane-1-carboxamide], for which the IC90 came out at 0.04 nM.
On to `CCC(=O)N1c2ccccc2[C@H](Nc2ccc(NC(=O)NCCNC(=O)C3CCC(N[C@@H]4C[C@H](C)N(C(=O)CC)c5ccccc54)CC3)cc2)C[C@@H]1C` (relative stereo) [Compound 8n, (1R,4r)-4-(((2S*,4R*)-2-Methyl-1-propionyl-1,2,3,4-tetrahydroquinolin-4-yl)amino)-N-(2-(3-(4-(((2S,4R)-2-methyl-1-propionyl-1,2,3,4-tetrahydroquinolin-4-yl)amino)phenyl)ureido)ethyl)cyclohexane-1-carboxamide], for which the concentration for an effect of 90% (IC90) is 1.17 nM.
On the same count and under the same terms, the value for `CCC(=O)N1c2ccccc2[C@H](Nc2ccc(-c3cnn(CCNC(=O)C4CCC(N[C@@H]5C[C@H](C)N(C(=O)CC)c6ccccc65)CC4)c3)cc2)C[C@@H]1C` (relative stereo) [Compound 8o, (1R,4r)-4-(((2S*,4R*)-2-Methyl-1-propionyl-1,2,3,4-tetrahydroquinolin-4-yl)amino)-N-(2-(4-(4-(((2S,4R)-2-methyl-1-propionyl-1,2,3,4-tetrahydroquinolin-4-yl)amino)phenyl)-1H-pyrazol-1-yl)ethyl)cyclohexane-1-carboxamide] was 0.49 nM.
`CCC(=O)N1c2ccccc2[C@H](Nc2ccc(NC(=O)C3CCN(C(=O)C4CCC(N[C@@H]5C[C@H](C)N(C(=O)CC)c6ccccc65)CC4)CC3)cc2)C[C@@H]1C` (relative stereo) [Compound 8q, 1-((1R,4r)-4-(((2S*,4R*)-2-Methyl-1-propionyl-1,2,3,4-tetrahydroquinolin-4-yl)amino)cyclohexane-1-carbonyl)-N-(4-(((2S,4R)-2-methyl-1-propionyl-1,2,3,4-tetrahydroquinolin-4-yl)amino)phenyl)piperidine-4-carboxamide]: the IC90 turned out to be 19 nM.
`CCC(=O)N1c2ccccc2[C@H](Nc2ccc(C(=O)NCCS(=O)(=O)NC3CCC(N[C@@H]4C[C@H](C)N(C(=O)CC)c5ccccc54)CC3)cc2)C[C@@H]1C` (relative stereo) [Compound 9a, 4-(((2S,4R)-2-Methyl-1-propionyl-1,2,3,4-tetrahydroquinolin-4-yl)amino)-N-(2-(N-((1R,4R)-4-(((2S*,4R*)-2-methyl-1-propionyl-1,2,3,4-tetrahydroquinolin-4-yl)amino)cyclohexyl)sulfamoyl)ethyl)benzamide]: the IC90 came out at 1.68 nM.
Take `CCC(=O)N1c2ccccc2[C@H](Nc2ccc(-c3cnn(CC(=O)NC4CCC(N[C@@H]5C[C@H](C)N(C(=O)CC)c6ccccc65)CC4)c3)cc2)C[C@@H]1C` (relative stereo) [Compound 9b, N-((1R,4R)-4-(((2S*,4R*)-2-Methyl-1-propionyl-1,2,3,4-tetrahydroquinolin-4-yl)amino)cyclohexyl)-2-(4-(4-(((2S,4R)-2-methyl-1-propionyl-1,2,3,4-tetrahydroquinolin-4-yl)amino)phenyl)-1H-pyrazol-1-yl)acetamide]: the IC90 worked out at 3.18 nM.
With `CCC(=O)N1c2ccccc2[C@H](Nc2ccc(NC(=O)NCC(=O)NC3CCC(N[C@@H]4C[C@H](C)N(C(=O)CC)c5ccccc54)CC3)cc2)C[C@@H]1C` (relative stereo) [Compound 9c, N-((1R,4R)-4-(((2S*,4R*)-2-Methyl-1-propionyl-1,2,3,4-tetrahydroquinolin-4-yl)amino)cyclohexyl)-2-(3-(4-(((2S,4R)-2-methyl-1-propionyl-1,2,3,4-tetrahydroquinolin-4-yl)amino)phenyl)ureido)acetamide], the IC90 turned out to be 12.4 nM.
Take `CCC(=O)N1c2ccccc2[C@H](Nc2ccc(C(=O)NCC#CC(=O)NC3CC(N[C@@H]4C[C@H](C)N(C(=O)CC)c5ccccc54)C3)cc2)C[C@@H]1C` (relative stereo) [Compound 10f, 4-(((2S,4R)-2-Methyl-1-propionyl-1,2,3,4-tetrahydroquinolin-4-yl)amino)-N-(4-(((1R,3R)-3-(((2S*,4R*)-2-methyl-1-propionyl-1,2,3,4-tetrahydroquinolin-4-yl)amino)cyclobutyl)amino)-4-oxobut-2-yn-1-yl)benzamide]: the IC90 was 0.92 nM.
For the molecule `CCC(=O)N1c2ccccc2[C@H](NCc2ccc(C(=O)NCc3cn(-c4ccc(N[C@@H]5C[C@H](C)N(C(=O)CC)c6ccccc65)cc4)nn3)cc2)C[C@@H]1C` (relative stereo) [Compound 10h, 4-((a2S*,4R*)-2-Methyl-1-propionyl-1,2,3,4-tetrahydroquinolin-4-yl)amino)methyl)-N-((1-(4-(((2S,4R)-2-methyl-1-propionyl-1,2,3,4-tetrahydroquinolin-4-yl)amino)phenyl)-1H-1,2,3-triazol-4-yl)methyl)benzamide], the IC90 worked out at 0.35 nM.
The same measure, in the same setting: with `CCC(=O)N1c2ccccc2[C@H](NCCCCC(=O)NCc2nnc(-c3ccc(N[C@@H]4C[C@H](C)N(C(=O)CC)c5ccccc54)cc3)o2)C[C@@H]1C` (relative stereo) [Compound 12j, 5-(((2S*,4R*)-2-Methyl-1-propionyl-1,2,3,4-tetrahydroquinolin-4-yl)amino)-N-((5-(4-(((2S,4R)-2-methyl-1-propionyl-1,2,3,4-tetrahydroquinolin-4-yl)amino)phenyl)-1,3,4-oxadiazol-2-yl)methyl)pentane amide] the figure was 17.4 nM.
Still for that read-out and setting: the value for `CCC(=O)N1c2ccccc2[C@H](NC2CCC(NC(=O)C#CCNC(=O)c3ccc(C4=NCc5nnc(C)n5-c5sc(C)c(C)c54)cc3)CC2)C[C@@H]1C` (relative stereo) [Compound 14c, N-(4-(((1R,4r)-4-(((2S*,4R*)-2-Methyl-1-propionyl-1,2,3,4-tetrahydroquinolin-4-yl)amino)cyclohexyl)amino)-4-oxobut-2-yn-1-yl)-4-(2,3,9-trimethyl-6H-thieno[3,2-f][1,2,4]triazolo[4,3-a][1,4]diazepin-4-yl)benzamide] was 0.34 nM.
Regarding `CCC(=O)N1c2ccccc2[C@@H](Nc2ccc(-n3cc(CNC(=O)C4CCC(N[C@@H]5C[C@H](C)N(C(=O)CC)c6ccccc65)CC4)nn3)cn2)C[C@H]1C` (relative stereo) [Compound 17h, (1R,4S)-4-(((2S,4R)-2-Methyl-1-propionyl-1,2,3,4-tetrahydroquinolin-4-yl)amino)-N-((1-(6-(((2R*,4S*)-2-methyl-1-propionyl-1,2,3,4-tetrahydroquinolin-4-yl)amino)pyridin-3-yl)-1H-1,2,3-triazol-4-yl)methyl)cyclohexane-1-carboxamide], the 90% effect concentration (IC90) came to 0.2 nM.
